4 compounds from US6800653B2, “Epothilone derivatives” (priority 2001, dated 2004) can be followed below.

One assay relates to calf brain tubulin. Briefly: In vitro tubulin polymerization. The note with it: interpolated concentration inducing an initial slope of 0.01 OD/minute; 1.0 mg/ml microtubule protein, 37°; read-out: Tubulin assay EC0.01. The format is biochemical. As for the experimental part:
In vitro Tubulin Polymerization
Twice cycled (2×) calf brain tubulin was prepared following the procedure of Williams and Lee (see Williams, R. C., Jr., and Lee, J. C. Preparation of tubulin from brain. Methods in Enzymology 85, Pt. D: 376-385, 1982) and stored in liquid nitrogen before use. Quantification of tubulin polymerization potency is accomplished following a modified procedure of Swindell, et al., (see Swindell, C. S., Krauss, N. E., Horwitz, S. B., and Ringel, L. Biologically active taxol analogues with deleted A-ring side chain substituents and variable C-2′ configurations. J. Med. Chem. 34: 1176-1184, 1991). These modifications, in part, result in the expression of tubulin polymerization potency as an effective concentration for any given compound. For this method, different concentrations of compound in polymerization buffer (0.1M MES, 1 mM EGTA, 0.5 mM MgCl2, pH 6.6) are added to tubulin in polymerization buffer at 37° in microcuvette wells of a Beckman (Beckman Instruments) Model DU 7400 UV spectrophotometer. A final microtubule protein concentration of 1.0 mg/ml and compound concentration of generally 2.5, 5.0, and 10 μM are used. Initial slopes of OD change measured every 10 seconds were calculated by the program accompanying the instrument after initial and final times of the linear region encompassing at least 3 time points were manually defined. Under these conditions linear variances were generally <10^−6, slopes ranged from 0.03 to 0.002 absorbance unit/minute, and maximum absorbance was 0.15 absorbance units. Effective concentration (EC0.01) is defined as the interpolated concentration capable of inducing an initial slope of 0.01 OD/minute rate and is calculated using the formula: EC0.01=concentration/slope. EC0.01 values are expressed as the mean with standard deviation obtained from 3 different concentrations. EC0.01 values for the compounds in this invention fall in the range 0.01-1000 μM.

The test system of assay [1] is HCT-116 human colon carcinoma cells. In words: Cytotoxicity (in vitro) by MTS assay. The note with it: HCT-116, 72 hours incubation, MTS, read-out: HTC-116 assay IC50. The format is cell-based. As for the experimental part:
Cytoxicity was assessed in HCT-116 human colon carcinoma cells by MTS (3-(4,5-dimethylthiazol-2-yl)-5-(3-carboxymethoxyphenyl)-2-(4-sulphenyl)-2H-tetrazolium, inner salt) assay as reported in T. L. Riss, et. al., “Comparison of MTT, XTT, and a novel tetrazolium compound MTS for in vitro proliferation and chemosensitivity assays.,” Mol. Biol. Cell 3 (Suppl.): 184a, 1992. Cells were plated at 4,000 cell/well in 96 well microtiter plates and 24 hours later drugs were added and serial diluted. The cells were incubated at 37° form 72 hours at which time the tetrazolium dye, MTS at 333 μg/ml (final concentration), in combination with the electron coupling agent phenazine methosulfate at 25 μM (final concentration) was added. A dehydrogenase enzyme in live cells reduces the MTS to a form that absorbs light at […] which can be quantitated spectrophotometrically. The greater the absorbance the greater the number of live cells. The results are expressed as an IC50, which is the drug concentration required to inhibit cell proliferation (i.e. absorbance at 450 nm) to 50% of that of untreated control cells.
On the technique in general: Tetrazolium dyes change colour on reduction, which living cells bring about.

With `CC(=O)N1C2CC(/C(C)=C/c3csc(C)n3)OC(=O)C[C@H](O)C(C)(C)C(=O)[C@H](C)[C@@H](O)[C@@H](C)CCC[C@H]21` (relative stereo) [Example 21, [1S-[1R*,3R*(E),7R*,10S,11R*,12R*,16S*]]-17-Acetyl-7,11-dihydroxy-8,8,10,12-tetramethyl-3-[1-methyl-2-(2-methyl-4-thiazolyl)ethenyl]-4-oxa-17-azabicyclo[14.1.0]heptadecane-5,9-dione.], the EC50 in the assay with calf brain tubulin came out at 1200 nM. Besides, in assay [1], the IC50 (commonly the concentration at which inhibition is half-maximal) is 0.9 nM.

On to `C/C(=C\c1csc(C)n1)C1CC2[C@@H](CCC[C@H](C)[C@H](O)[C@@H](C)C(=O)C(C)(C)[C@@H](O)CC(=O)O1)N2C(=O)c1ccccc1` (relative stereo) [Example 22, 1S-[1R*,3R*(E),7R*,10S,11R*,12R*,16S*]]-17-Phenylcarbonyl-7,11-dihydroxy-8,8,10,12-tetramethyl-3-[1-methyl-2-(2-methyl-4-thiazolyl)ethenyl]-4-oxa-17-azabicyclo[14.1.0]heptadecane-5,9-dione.], for which the EC50 with calf brain tubulin amounted to 1400 nM. Moreover, the IC50 in assay [1] is 3 nM.

As for `C/C(=C\c1csc(C)n1)C1CC2[C@@H](CCC[C@H](C)[C@H](O)[C@@H](C)C(=O)C(C)(C)[C@@H](O)CC(=O)O1)N2C(=O)c1cccs1` (relative stereo) [Example 23, [1S-[1R*,3R*(E),7R*,10S*,11R*,12R*,16S*]]-17-(2-Thienyl)carbonyl-7,11-dihydroxy-8,8,10,12-tetramethyl-3-[1-methyl-2-(2-methyl-4-thiazolyl)ethenyl]-4-oxa-17-azabicyclo[14.1.0]heptadecane-5,9-dione.], the EC50 in the assay with calf brain tubulin was 1200 nM. In addition, the IC50 in assay [1] is 1.6 nM.

On to `CCOC(=O)N1C2CC(/C(C)=C/c3csc(C)n3)OC(=O)C[C@H](O)C(C)(C)C(=O)[C@H](C)[C@@H](O)[C@@H](C)CCC[C@H]21` (relative stereo) [Example 24], for which the EC50 in the assay with calf brain tubulin turned out to be 1200 nM. Moreover, the IC50 in assay [1] amounted to 7.7 nM.
